# Measurements reported in patent EP4810494A1, “HPK1 DEGRADATION AGENT AND USE THEREOF IN FIELD OF MEDICINE” (Haisco Pharmaceutical Group Co., Ltd., priority 2023, dated 2025).
# Counter-ions that a name gives are not always drawn. Like-named read-outs stand apart in the source and are kept apart here.
# How the values were obtained:
# [1] = system: IL-2 secretion by T cells; experiment: IL-2 detection assay in cells (ELISA, pan-T cells isolated from PBMCs); assay type: cell-based; settings: IL-2, CD3 antibody-coated plate, 24 hours; for Maximum activation fold: maximum activation rate/control group
# Protocol: 9. IL-2 detection assay in cells
# Activating effect of compounds on IL-2 secretion by T cells was evaluated using the ELISA method. Frozen PBMCs were thawed, and pan-T cells were isolated and purified using a T cell sorting kit (Stemcell, 17951). The cells were resuspended in 1640 complete medium and incubated in a 37°C&5%CO2 incubator overnight. A 96-well plate coated with an anti-human CD3 antibody (Thermo, 16-0037-38) at a final concentration of 5 µg/mL was incubated at 37°C for 2 h. The overnight-cultured cells were collected by centrifugation, the supernatant was discarded, and the cells were resuspended in 1640 complete medium, and seeded in the CD3 antibody-coated 96-well plate at a density of 10^5cells/well. The compounds at different concentrations were added, and the mixture was incubated in a 37°C&5%CO2 incubator for 24 hours. After the incubation was completed, the resulting mixture was centrifuged at 1000 rpm for 1 minute to collect the supernatant, and IL-2 was detected according to the ELISA instructions. DMSO without compounds was used as the control group to calculate the activation rate of the compounds, and prism was used to fit the activation curve. Maximum activation fold = maximum activation rate/control group. Table 9-1 Results of IL-2 activation by test compounds
# HPK1 kinase = biological target: T1, HPK1 kinase (Homo sapiens, UniProt Q92918); experiment: HPK1 kinase assay (1 mM ATP); assay type: biochemical
# T1 construct: purchased Carna 07-410
# T1 sequence (Q92918 1-346 limits assumed): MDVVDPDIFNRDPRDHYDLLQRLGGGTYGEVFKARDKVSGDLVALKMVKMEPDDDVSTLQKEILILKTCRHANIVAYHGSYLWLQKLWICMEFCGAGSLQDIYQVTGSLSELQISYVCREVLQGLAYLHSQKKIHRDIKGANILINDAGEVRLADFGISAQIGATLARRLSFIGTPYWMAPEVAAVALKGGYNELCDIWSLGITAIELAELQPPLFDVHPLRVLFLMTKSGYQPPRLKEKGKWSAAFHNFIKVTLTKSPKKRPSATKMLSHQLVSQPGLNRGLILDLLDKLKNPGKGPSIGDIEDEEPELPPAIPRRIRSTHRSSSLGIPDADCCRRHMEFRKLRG
# Protocol: Test example 5: HPK1 kinase assay (1 mM ATP)
# The kinase HPK1 (Carna, Cat.No 07-410) was prepared into 2× kinase solution using 1× kinase buffer. The substrate Fluorescein-PKC (Invitrogen, Cat. No. PV3506) and ATP (working concentration: 1 mM) (Sigma, Cat. No. 2383-5G) were prepared into 2× substrate solution using 1×kinase buffer. The detection reagent was diluted to 2-fold the final concentration using an antibody diluent. 100 nL of compounds at different concentrations and 5 µL of kinase solution were added to each well of a 384-well plate, and the mixture was incubated at room temperature for 10 minutes. After the incubation was completed, 5 µL of substrate solution was added to each well, and the resulting mixture was reacted at room temperature for 90 minutes. After the reaction was completed, 10 µL of detection reagent was added to each well to terminate the reaction, and the mixture was incubated at room temperature for 60 minutes. Fluorescence readings were detected using an Envision instrument with excitation at 320 nm and emission at 520 nm and 495 nm. IC50 value was calculated using XLFit excel add-in version 5.4.0.8 software. The calculation formula of the inhibition rate was shown in formula 5-1, wherein max is the Ratio of the DMSO control, min is the Ratio of the negative control without enzyme, and sample is the Ratio of the compound. Ratio = RFU520nm /RFU495nm [formula] Inhibition% = (max−sample)/(max−min) × 100% [formula] Table 5-1 Inhibitory activity of test compounds against HPK1 kinase
# [2] = Pharmacokinetic test in mice; assay type: in vivo, ICR mice; settings: mouse, plasma
# Protocol: Test example 6: Pharmacokinetic test in mice
# Experimental objective: In this experiment, a single dose of test substances was administered to ICR mice intravenously and intragastrically, the concentrations of the test compounds in plasma of mice were measured, and the pharmacokinetic characteristics and bioavailability of the test compounds in mice were evaluated.
# Experimental animals: Male ICR mice, 20-35 g, purchased from Chengdu Dossy Experimental Animals Co., Ltd. (SCXK (CHUAN) 2020-030).
# Experimental method: On the day of the experiment, the ICR mice were randomly grouped according to their body weights. The animals were fasted but with water available overnight before the administration, and fed 4 h after the administration.
# Sampling: Blood was taken from the orbits of the mice at specified time points, and placed in an EDTAK2 centrifuge tube. Centrifugation was performed at 5000 rpm at 4°C for 10 min, and the plasma was collected.
# Time points for plasma collection in G1 and G1-2 groups: 0, 5 min, 15 min, 30 min, 1 h, 2 h, 4 h, 7 h, and 24 h.
# Time points for plasma collection in G2 and G2-2 groups: 0, 5 min, 15 min, 30 min, 1 h, 2 h, 4 h, 7 h, and 24 h.
# Before analysis and detection, all the samples were stored at -60°C or lower. The samples were analysed quantitatively by LC-MS/MS. Table 6-1 PK data of test compound drug in mice
# [3] = Pharmacokinetic test in rats; assay type: in vivo, SD rats; settings: rat, plasma
# Protocol: Test example 7: Pharmacokinetic test in rats
# Experimental animals: Male SD rats, 180-200 g, purchased from Chengdu Dossy Experimental Animals Co., Ltd. with the laboratory animal production license number of SCXK (CHUAN) 2020-030.
# Experimental design: on the day of the experiment, the SD rats were randomly grouped according to their body weights. The animals were fasted but with water available overnight before the administration, and fed 4 h after the administration.
# Vehicle for intragastric administration: 5% Solutol+5% TPGS+30% PEG400+60% (20% SBE-β-CD)
# Blood was taken from the orbits of the […] at specified time points, and placed in an EDTAK2 centrifuge tube. Centrifugation was performed at 5000 rpm for 10 min, and the plasma was collected.
# Blood sampling time points for the intravenous administration group were: 0, 5 min, 15 min, 30 min, 1 h, 2 h, 4 h, 6 h, 8 h and 24 h; blood sampling time points for the intragastric administration group were: 0, 5 min, 15 min, 30 min, 1 h, 2 h, 4 h, 6 h, 8 h and 24 h. Before analysis and detection, all the samples were stored at - 60°C or lower. The samples were analysed quantitatively by LC-MS/MS. Table 7-1 PK data of test compound drug in rats
# HPK1 protein = biological target: T2, HPK1 protein (Homo sapiens, UniProt Q92918); experiment: Detection of HPK1 protein expression level in Jurkat cells (24 h); assay type: cell-based; settings: 24 hours incubation
# T2 construct: host or cells: Jurkat cells
# T2 sequence (Q92918 whole entry): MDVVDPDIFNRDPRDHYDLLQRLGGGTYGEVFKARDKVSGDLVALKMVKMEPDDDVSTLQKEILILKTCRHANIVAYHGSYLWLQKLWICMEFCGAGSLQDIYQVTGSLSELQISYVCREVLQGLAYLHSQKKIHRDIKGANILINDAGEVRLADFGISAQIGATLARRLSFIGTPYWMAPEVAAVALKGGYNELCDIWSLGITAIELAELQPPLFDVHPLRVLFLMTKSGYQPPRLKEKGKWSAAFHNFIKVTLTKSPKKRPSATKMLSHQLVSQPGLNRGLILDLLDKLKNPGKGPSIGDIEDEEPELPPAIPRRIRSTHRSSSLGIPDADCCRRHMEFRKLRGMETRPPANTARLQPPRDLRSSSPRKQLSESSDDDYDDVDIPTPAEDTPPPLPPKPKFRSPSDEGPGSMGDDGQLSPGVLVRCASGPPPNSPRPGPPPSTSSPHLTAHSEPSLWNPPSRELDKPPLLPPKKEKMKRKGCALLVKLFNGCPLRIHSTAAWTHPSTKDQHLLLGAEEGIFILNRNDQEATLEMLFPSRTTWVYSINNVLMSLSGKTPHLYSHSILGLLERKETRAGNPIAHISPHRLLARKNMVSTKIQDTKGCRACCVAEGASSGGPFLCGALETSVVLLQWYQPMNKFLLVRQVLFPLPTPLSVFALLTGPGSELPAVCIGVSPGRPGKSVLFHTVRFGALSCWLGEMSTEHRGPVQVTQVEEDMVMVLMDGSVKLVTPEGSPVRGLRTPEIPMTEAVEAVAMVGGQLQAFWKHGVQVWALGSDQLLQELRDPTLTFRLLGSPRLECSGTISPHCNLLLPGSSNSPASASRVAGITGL
# Protocol: Test example 4: Detection of HPK1 protein expression level in Jurkat cells (24 h)
# Jurkat cells from ATCC were placed in a RPMI-1640 complete medium (supplemented with 10% FBS and 1% penicillin-streptomycin solution) and cultured at 37°C and 5% CO2. The cells in the logarithmic growth phase were collected, the cell density was adjusted to 5 × 10^5 cells/well with the culture medium, and the cells were added to a 6-well cell culture plate at a volume of 1 mL/well. The compound to be tested was prepared to 2-fold the final concentration, 1 mL of the compounds at different concentrations were added to administration wells, a medium containing 0.2% DMSO was added to control wells, and the plate was incubated at 37°C and 5% CO2 for 24 hours. The cells were collected into a 1.5 mL centrifuge tube, 30 µL of RIPA lysis buffer (containing 1X protease inhibitor cocktail) was added, and the cells were lysed on ice for 15 minutes and centrifuged at 12000 rpm/min at 4°C for 10 minutes. The supernatant was collected and the protein content was determined using the BCA method. The protein sample to be tested was diluted to 0.2 mg/mL, HPK1 was detected using a fully automated protein expression quantitative analyser (ProteinSimple), and the internal reference protein was β-actin (all antibodies were from CST). The software (Compass for SW) of the fully automated protein expression quantitative analyser was used to process the raw data and calculate the peak area after internal reference normalisation and the HPK1 degradation rate relative to the control group. The HPK1 degradation rate was calculated according to formula 4-1, where Aadministration well is the relative peak area of the administration group after internal reference normalisation, and Acontrol well is the relative peak area of the vehicle control group after internal reference normalisation. DC50 values were calculated using a four-parameter non-linear fitting model in Graphpad 8.3.0 software. HPK1_degradation % = 100−(Aadministration well/Acontrol well×100%) [formula] Table 4-1 Degradation activity of test compounds against HPK1 protein in Jurkat cells (24 h)
# [4] = ATP working concentration: 1 mM
Structure (SMILES),"AUC ([2]; po, i. g., 10 mg/kg) [ng·h/mL]","Cmax ([2]; po, i. g., 10 mg/kg) [ng/mL]","half-life ([2]; po, i. g., 10 mg/kg) [min]",DC50 (HPK1 protein) [nM],IC50 (HPK1 kinase; [4]) [nM],IC50 (HPK1 kinase) [nM],also measured
"O=C1CCC(c2ccc(N3CCN(CC4CCN(c5ccc(Nc6ccc(-c7cnc8cc(F)ccn78)c7c6C(=O)NC7)nc5)CC4)CC3)cc2F)C(=O)N1 (single isomer, unassigned) [Compound 1-1]",,,,,,,"Activation fold at 100 nM concentration [1]: >10; IC50 (HPK1 kinase; ATP working concentration: 1 mM, read-out: IC50): < 50 nM"
"CN(C)Cc1nc(Nc2ccc(-c3cnc4cc(F)ccn34)c3c2C(=O)NC3)ccc1[C@@H]1CCOC1 [Control compound 1, reference compound]",248,93.8,123,,,,"clearance ([2]; IV, 2.5 mg/kg): 169 mL/min/kg; half-life ([2]; IV, 2.5 mg/kg): 53.4 min; Activation fold at 100 nM concentration [1]: <10; Maximum activation fold [1]: <10; clearance ([3]; IV, 2.5 mg/kg): 233 mL/min/kg; half-life ([3]; IV, 2.5 mg/kg): 59.2 min; AUC ([3]; po, i. g., 10 mg/kg): 61.1 ng·h/mL; Cmax ([3]; po, i. g., 10 mg/kg): 14.6 ng/mL; half-life ([3]; po, i. g., 10 mg/kg): 103 min"
O=C1CC[C@H](NC(=O)c2cc3c(cc2F)N2CCN(CC4CCN(c5ccc(Nc6ccc(-c7cnc8cc(F)ccn78)c7c6C(=O)NC7)nc5)CC4)C[C@@H]2CC3)C(=O)N1 [Trifluoroacetic acid salt of compound 7],,,,< 20,< 50,,Activation fold at 100 nM concentration [1]: >10; Maximum activation fold [1]: >10
O=C1CC[C@H](NC(=O)c2cc3c(cc2F)N2CCN(CC4CCN(c5ccc(Nc6ccc(-c7cnc8cc(F)ccn78)c7c6C(=O)NC7)nc5)CC4)C[C@H]2CC3)C(=O)N1 [Trifluoroacetic acid salt of compound 8],18300,1460,263,< 20,< 50,,
O=C1CCN(c2cc3c(cc2F)N2CCN(C4CCN(c5ccc(Nc6ccc(-c7cnc8cc(F)ccn78)c7c6C(=O)NC7)nc5)CC4)C[C@@H]2CC3)C(=O)N1 [Trifluoroacetic acid salt of compound 13],,,,< 20,,< 50,
O=C1CCN(c2cc3c(cc2F)N2CCN(C4CCN(c5ccc(Nc6ccc(-c7cnc8cc(F)ccn78)c7c6C(=O)NC7)nc5)CC4)C[C@H]2CC3)C(=O)N1 [Trifluoroacetic acid salt of compound 14],,,,< 20,,< 50,
O=C1CCN(c2cc3c(cc2F)N2CCN(CC4CC5(CCN(c6ccc(Nc7ccc(-c8cnc9cc(F)ccn89)c8c7C(=O)NC8)nc6)CC5)C4)C[C@@H]2CC3)C(=O)N1 [Trifluoroacetic acid salt of compound 15],23600,1620,458,< 20,< 50,,
O=C1CCN(c2cc3c(cc2F)N2CCN(C4CC5(CCN(c6ccc(Nc7ccc(-c8cnc9cc(F)ccn89)c8c7C(=O)NC8)nc6)CC5)C4)C[C@@H]2CC3)C(=O)N1 [Trifluoroacetic acid salt of compound 20],12600,1010,331,< 20,,< 50,"clearance ([3]; IV, 2.5 mg/kg): 13.4 mL/min/kg; half-life ([3]; IV, 2.5 mg/kg): 287 min; AUC ([3]; po, i. g., 10 mg/kg): 5310 ng·h/mL; Cmax ([3]; po, i. g., 10 mg/kg): 382 ng/mL; half-life ([3]; po, i. g., 10 mg/kg): 317 min"
O=C1CC[C@H](NC(=O)c2cc3c(cc2F)N2CCN(CC4CC5(CCN(c6ccc(Nc7ccc(-c8cnc9cc(F)ccn89)c8c7C(=O)NC8)nc6)CC5)C4)C[C@@H]2CC3)C(=O)N1 [Trifluoroacetic acid salt of compound 34],,,,< 20,< 50,,
O=C1CC[C@H](NC(=O)c2cc3c(cc2F)N2CCN(CC4CC5(CCN(c6ccc(Nc7ccc(-c8cnc9cc(F)ccn89)c8c7C(=O)NC8)nc6)CC5)C4)C[C@H]2CC3)C(=O)N1 [Trifluoroacetic acid salt of compound 36],,,,< 20,< 50,,
O=C1CC[C@H](NC(=O)c2cc3c(cc2F)N2CCN(C4CC5(CCN(c6ccc(Nc7ccc(-c8cnc9cc(F)ccn89)c8c7C(=O)NC8)nc6)CC5)C4)C[C@H]2CC3)C(=O)N1 [Trifluoroacetic acid salt of compound 37],,,,< 20,< 50,,
O=C1CC[C@H](NC(=O)c2cc3c(cc2F)N2CCN(C4CCN(c5ccc(Nc6ccc(-c7cnc8cc(F)ccn78)c7c6C(=O)NC7)nc5)CC4)C[C@H]2CC3)C(=O)N1 [Trifluoroacetic acid salt of compound 42],,,,< 20,,< 50,
